In publication PMC12064818, “A general assay platform to study protein pharmacology using ligand-dependent structural dynamics” (Nature Communications, 2025):
Where two headings read alike, the source gives them in different places.

Experiments:
PKA = details: cited from earlier work
PKA-N-HiBiT = PKA-N-HiBiT (Homo sapiens, UniProt P17612); experiment: SDR assay, PKA-N-HiBiT; details: PKA-N-HiBiT qHTS, SDR assay; average maximal response
NLuc = target: T1, NLuc (Oplophorus gracilirostris, UniProt Q9GV45, A31E/A60N/A81I/F95D/I117V/K70R/L54V/L99Q/M102K/N193R/P142E/Q151K/Q38R/Q45L/V71I/Y165I); assay type: biochemical; details: - ATP
T1 construct: His tag (inferred from IMAC purification); made in house; host or cells: E. coli
Method in brief: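 Luminescence was read 10 min after Nano-Glo reagent addition. Enzyme was 1 nM NLuc in PBS/0.05% IGEPAL buffer, with or without ATP.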

FLuc-C-HiBiT = target: T2, FLuc-C-HiBiT (Photinus pyralis, UniProt P08659); experiment: biochemical; details: enzyme activity, 10 uM ATP; read-out: IC50 or SDR50 (mM) / FLuc E
T2 construct: firefly luciferase with C-terminal HiBiT tag, E. coli expressed

[1] = target: FLuc-C-HiBiT (firefly luciferase) (Photinus pyralis, UniProt P08659, form not given/L550V); experiment: SDR assay, FLuc-C-HiBiT; details: for % Activity (max response, + ATP) / % Activity (max response, - ATP): SDR max. response, clade S; for % Activity (max response, - ATP) / pSDR50 (clade S): - ATP; for pSDR50 (clade S): dihydro-imidazo-oxazine (clade S)
[2] = target: FLuc-C-NLuc (firefly luciferase) (Photinus pyralis, UniProt P08659, form not given/L550V); experiment: SDR assay, FLuc-C-NLuc; details: - ATP
P. pyralis FLuc = P. pyralis FLuc (Photinus pyralis, UniProt P08659); experiment: FLuc enzymatic luminescence assay, P. pyralis FLuc; assay type: biochemical; details: FLuc enzymatic assay, Clade S follow-up; for IC50: read-out: IC50 or SDR50 (mM) FLuc E
Method in brief: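 Runs with and without 10 µM ATP: compounds were pre-incubated with FLuc (1–10 nM, PBS pH 7.4) at ambient temperature, light-protected, for 30–60 min. Luminescence was imaged 5 min after adding 10 µM D-luciferin (final). Inhibition was scaled between DMSO neutral and no-enzyme controls.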

[3] = annotation yes/no for kinase library compound, source not given

FLuc-C-NLuc (firefly luciferase), sequence (P08659 2-550 L550V, form open): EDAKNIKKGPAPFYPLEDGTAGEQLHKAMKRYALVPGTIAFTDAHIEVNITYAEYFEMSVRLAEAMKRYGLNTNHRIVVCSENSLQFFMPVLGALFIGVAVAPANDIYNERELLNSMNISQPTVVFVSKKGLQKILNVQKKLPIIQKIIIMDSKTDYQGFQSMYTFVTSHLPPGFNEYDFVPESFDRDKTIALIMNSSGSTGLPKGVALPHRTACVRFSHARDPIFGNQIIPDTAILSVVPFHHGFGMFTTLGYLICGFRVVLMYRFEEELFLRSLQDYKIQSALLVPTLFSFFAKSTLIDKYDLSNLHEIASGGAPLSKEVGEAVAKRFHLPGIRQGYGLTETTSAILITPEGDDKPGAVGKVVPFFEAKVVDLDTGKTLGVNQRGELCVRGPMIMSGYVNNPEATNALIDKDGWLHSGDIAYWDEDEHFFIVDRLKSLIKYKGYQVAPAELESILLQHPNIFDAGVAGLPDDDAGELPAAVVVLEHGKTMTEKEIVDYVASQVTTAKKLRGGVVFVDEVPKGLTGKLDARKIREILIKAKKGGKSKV
FLuc-C-HiBiT (firefly luciferase), sequence (P08659 2-550 L550V, form open): as above
T2 sequence (P08659 whole entry, looked up): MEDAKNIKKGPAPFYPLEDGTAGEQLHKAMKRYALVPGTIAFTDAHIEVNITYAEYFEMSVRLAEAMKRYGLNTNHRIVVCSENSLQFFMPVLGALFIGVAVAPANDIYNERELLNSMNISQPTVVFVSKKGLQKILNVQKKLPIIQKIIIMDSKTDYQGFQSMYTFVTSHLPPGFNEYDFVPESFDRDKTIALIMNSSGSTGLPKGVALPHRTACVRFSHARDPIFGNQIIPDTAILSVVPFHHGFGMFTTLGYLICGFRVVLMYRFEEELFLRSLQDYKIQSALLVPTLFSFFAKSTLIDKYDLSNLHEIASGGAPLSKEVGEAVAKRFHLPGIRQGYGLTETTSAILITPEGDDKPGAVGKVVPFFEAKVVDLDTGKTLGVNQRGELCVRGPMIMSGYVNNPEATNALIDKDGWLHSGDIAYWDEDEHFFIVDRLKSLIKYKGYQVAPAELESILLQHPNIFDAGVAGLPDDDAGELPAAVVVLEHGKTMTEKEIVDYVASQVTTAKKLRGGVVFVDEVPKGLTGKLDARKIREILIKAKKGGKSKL
P. pyralis FLuc, sequence (P08659 whole entry): as the sequence (P08659 whole entry, looked up) above
T1 sequence (Q9GV45 other isoform, or with tags, fused parts or gaps with the stated changes): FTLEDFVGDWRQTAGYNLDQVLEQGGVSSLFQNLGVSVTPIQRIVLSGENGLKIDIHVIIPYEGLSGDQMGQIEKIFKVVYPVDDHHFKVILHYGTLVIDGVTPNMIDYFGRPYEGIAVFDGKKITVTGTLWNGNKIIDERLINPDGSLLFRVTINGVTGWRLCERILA

Row | Molecule | Annotated PKA activity (PKA; [3]) | SDR Ave Max Response (PKA-N-HiBiT) | Efficacy (%) NLuc (- ATP) (NLuc) [%] | IC50 (FLuc-C-HiBiT) [mM] | % Activity (max response, + ATP) [1] [%] | % Activity (max response, - ATP) [1] [%] | Efficacy (%) FLuc-C-NLuc SDR (-ATP) [2] [%] | Efficacy (%) FLuc E (P. pyralis FLuc) [%] | pIC50 or pSDR50 FLuc E (P. pyralis FLuc) | IC50 (P. pyralis FLuc) [mM] | pSDR50 (clade S) [1] | Annotated PKA activity (PKA)
1 | CCN1CCN(Cc2ccc(NC(=O)Nc3ccc(Oc4cc(NC)ncn4)cc3)cc2C(F)(F)F)CC1 [AST-487] | yes | – | – | – | – | – | – | – | – | – | – | –
2 | CNC(=O)c1ccccc1Sc1ccc2c(/C=C/c3ccccn3)n[nH]c2c1 [Axitinib] | no | -3.36 | – | – | – | – | – | – | – | – | – | –
3 | C=CC(=O)Nc1cc2c(Nc3ccc(F)c(Cl)c3)ncnc2cc1OCCCN1CCOCC1 [Canertinib] | no | – | – | – | – | – | – | – | – | – | – | –
4 | CO[C@@H](C(=O)N1Cc2n[nH]c(NC(=O)c3ccc(N4CCN(C)CC4)cc3)c2C1)c1ccccc1 [Danusertib] | no | 4.52 | – | – | – | – | – | – | – | – | – | –
5 | COc1cc2c(Oc3ccc(NC(=O)C4(C(=O)Nc5ccc(F)cc5)CC4)cc3F)ccnc2cc1OCCCN1CCOCC1 [Foretinib] | no | – | – | – | – | – | – | – | – | – | – | –
6 | COc1cc2ncnc(Nc3ccc(F)c(Cl)c3)c2cc1OCCCN1CCOCC1 [Gefitinib] | no | – | – | – | – | – | – | – | – | – | – | –
7 | C/N=c1\ncc2cc(-c3cc(NC(=O)NCCC(C)(C)C)c(F)cc3C)c(C)nc2[nH]1 [LY-3009120] | no | 2.67 | – | – | – | – | – | – | – | – | – | –
8 | Cc1ccc(NC(=O)c2ccc(CN3CCN(C)CC3)cc2)cc1Nc1nc(-c2cccnc2)cs1 [Masitinib] | no | – | – | – | – | – | – | – | – | – | – | –
9 | Nc1ncccc1-c1nc2ccc(-c3ccccc3)nc2n1-c1ccc(C2(N)CCC2)cc1 [Miransertib] | no | – | – | – | – | – | – | – | – | – | – | –
10 | Cc1cccc(NC(=O)C2CCN(C(=O)c3ncn4c3COC(c3ccccc3)C4)CC2)c1 (stereo not drawn) [NCGC00449902-01] | – | – | 0.00 | 0.00248 | 372.05 | 0.00 | 0.00 | -97.06 | 5.66 | 0.00221 | – | –
11 | Cc1ccc(NC(=O)C2CCN(C(=O)c3ncn4c3COC(c3ccccc3)C4)CC2)cc1 (stereo not drawn) [NCGC00449903-01] | – | – | 0.00 | 0.00176 | 343.11 | 0.00 | 0.00 | -93.84 | 5.61 | 0.00248 | – | –
12 | Cc1cc(C)cc(NC(=O)C2CCN(C(=O)c3ncn4c3COC(c3ccccc3)C4)CC2)c1 (stereo not drawn) [NCGC00449905-01] | – | – | 0.00 | 0.00313 | 375.38 | 0.00 | 0.00 | -86.91 | 5.46 | 0.0035 | – | –
13 | CC(C)c1cccc(NC(=O)C2CCN(C(=O)c3ncn4c3COC(c3ccccc3)C4)CC2)c1 (stereo not drawn) [NCGC00449908-01] | – | – | 0.00 | 0.00785 | 304.79 | 0.00 | 0.00 | -95.10 | 5.26 | 0.00555 | – | –
14 | CC(C)c1ccc(NC(=O)C2CCN(C(=O)c3ncn4c3COC(c3ccccc3)C4)CC2)cc1 (stereo not drawn) [NCGC00449909-01] | – | – | 0.00 | 0.00351 | 370.54 | 0.00 | 0.00 | -93.68 | 5.51 | 0.00312 | – | –
15 | COc1ccc(NC(=O)C2CCN(C(=O)c3ncn4c3COC(c3ccccc3)C4)CC2)cc1 (stereo not drawn) [NCGC00449910-01] | – | – | 0.00 | 0.00785 | 319.33 | 0.00 | 0.00 | -79.86 | 5.06 | 0.0088 | – | –
16 | COc1ccc(NC(=O)C2CCN(C(=O)c3ncn4c3COC(c3ccccc3)C4)CC2)cc1OC (stereo not drawn) [NCGC00449911-01] | – | – | 11.18 | 0.00351 | 240.56 | 15.50 | 0.00 | -91.83 | 5.51 | 0.00312 | – | –
17 | CCOc1ccc(NC(=O)C2CCN(C(=O)c3ncn4c3COC(c3ccccc3)C4)CC2)cc1 (stereo not drawn) [NCGC00449913-01] | – | – | -11.50 | 0.007 | 212.53 | 0.00 | 0.00 | -92.73 | 5.36 | 0.00441 | – | –

Row | Molecule | Annotated PKA activity (PKA; [3]) | SDR Ave Max Response (PKA-N-HiBiT) | Efficacy (%) NLuc (- ATP) (NLuc) [%] | IC50 (FLuc-C-HiBiT) [mM] | % Activity (max response, + ATP) [1] [%] | % Activity (max response, - ATP) [1] [%] | Efficacy (%) FLuc-C-NLuc SDR (-ATP) [2] [%] | Efficacy (%) FLuc E (P. pyralis FLuc) [%] | pIC50 or pSDR50 FLuc E (P. pyralis FLuc) | IC50 (P. pyralis FLuc) [mM] | pSDR50 (clade S) [1] | Annotated PKA activity (PKA)
18 | O=C(Nc1cccc(F)c1)C1CCN(C(=O)c2ncn3c2COC(c2ccccc2)C3)CC1 (stereo not drawn) [NCGC00449914-01] | – | – | 0.00 | 0.000881 | 387.59 | 0.00 | 0.00 | -105.74 | 6.21 | 0.00062 | – | –
19 | O=C(Nc1ccc(F)cc1)C1CCN(C(=O)c2ncn3c2COC(c2ccccc2)C3)CC1 (stereo not drawn) [NCGC00449915-01] | – | – | 0.00 | 0.00176 | 357.60 | 0.00 | 0.00 | -91.87 | 5.91 | 0.00124 | – | –
20 | O=C(Nc1ccc(F)c(F)c1)C1CCN(C(=O)c2ncn3c2COC(c2ccccc2)C3)CC1 (stereo not drawn) [NCGC00449916-01] | – | – | 0.00 | 0.000989 | 236.10 | 8.48 | 0.00 | -98.00 | 6.11 | 0.00078 | – | –
21 | O=C(Nc1ccc(Cl)cc1)C1CCN(C(=O)c2ncn3c2COC(c2ccccc2)C3)CC1 (stereo not drawn) [NCGC00449917-01] | – | – | 0.00 | 0.00176 | 361.85 | 0.00 | 0.00 | -91.81 | 5.81 | 0.00157 | – | –
22 | O=C(Nc1ccc(F)c(Cl)c1)C1CCN(C(=O)c2ncn3c2COC(c2ccccc2)C3)CC1 (stereo not drawn) [NCGC00449918-01] | – | – | 0.00 | 0.000989 | 238.83 | 49.33 | 0.00 | -99.81 | 6.16 | 0.0007 | 4.95 | –
23 | COc1ccc(NC(=O)C2CCN(C(=O)c3ncn4c3COC(c3ccccc3)C4)CC2)cc1Cl (stereo not drawn) [NCGC00449919-01] | – | – | -11.50 | 0.000881 | 241.73 | 38.71 | -15.13 | -103.24 | 6.36 | 0.00044 | 4.85 | –
24 | COc1ccc(C)cc1NC(=O)C1CCN(C(=O)c2ncn3c2COC(c2ccc(F)cc2)C3)CC1 (stereo not drawn) [NCGC00449936-01] | – | – | 0.00 | 0.00989 | 128.83 | -5.78 | 0.00 | -99.49 | 5.06 | 0.0088 | – | –
25 | Cc1cc(NC(=O)c2ccc(C)c(Nc3nccc(-c4cccnc4)n3)c2)cc(-n2cnc(C)c2)c1 [NSC762948] | no | -6.66 | – | – | – | – | – | – | – | – | – | –
26 | Cc1cn(-c2cccc(NC(=O)c3ccc(C)c(Nc4nccc(-c5cccnc5)n4)c3)c2)cn1 [NSC762949] | no | -2.45 | – | – | – | – | – | – | – | – | – | –
27 | Cc1cn(-c2cc(F)cc(NC(=O)c3ccc(C)c(Nc4nccc(-c5cccnc5)n4)c3)c2)cn1 [NSC762950] | no | -15.93 | – | – | – | – | – | – | – | – | – | –
28 | Cc1cc(Nc2ncc3cc(-c4c(Cl)cccc4Cl)c(=O)n(C)c3n2)ccc1F [PD 180970] | no | -17.64 | – | – | – | – | – | – | – | – | – | –
29 | CSc1cccc(Nc2ncc3cc(-c4c(Cl)cccc4Cl)c(=O)n(C)c3n2)c1 [PD-173955] | no | – | – | – | – | – | – | – | – | – | – | –
30 | CC(C)n1nc(-c2cc3cc(O)ccc3[nH]2)c2c(N)ncnc21 [PP 242] | – | – | – | – | – | – | – | – | – | – | – | yes
31 | Cc1cc(C)c(/C=C2\C(=O)Nc3ccccc32)[nH]1 [Semaxanib] | no | – | – | – | – | – | – | – | – | – | – | –
32 | CN[C@@H]1C[C@H]2O[C@@](C)([C@@H]1OC)n1c3ccccc3c3c4c(c5c6ccccc6n2c5c31)C(=O)NC4 [staurosporine, reference compound] | yes | – | – | – | – | – | – | – | – | – | – | –
33 | PHA-665752 | no | – | – | – | – | – | – | – | – | – | – | –
